Laboratory results reported in patent publication US12729211B2, “Gold(III) compounds and cancer cell-selective modulation of mitochondrial respiration and metabolism” (University of Kentucky Research Foundation, priority 2020, dated 2026).

What was measured:
[1] = tested on: MDA-MB-468; assay: MMP by JC-1 FACS, MDA-MB-468; type: cell-based
From the text: The MMP depolarizing effect on the panel of TBNCs and healthy models was examined with the use of flow assisted cell sorting (FACS) (FIG. 19A-C). JC-1 was used, a cationic, fluorometric dye that is dependent on the negative charge of the MMP. It is represented as J-aggregates (red fluorescence) when it accumulates into the mitochondria and J-monomers (green fluorescence) when it is located outside the mitochondrial membrane due to loss of the electrochemical gradient.
Next, the effect of MMP was examined when pretreated with MitoTEMPO (1 μM, 2 hours) (FIG. 34).

[2] = tested on: MDA-MB-468; assay: Mitochondrial ROS (mtROS) by MitoSOX FACS; type: cell-based; details: MitoTEMPO 1 μM 2 hours, then 2a 10 μM 2 hours
From the text: Second, to solidify the specificity of ROS, the use of MitoSOX was employed, which is a mitochondrial targeting dye that specifically reacts with superoxide.
First, the effect of pre-treatment on mtROS production was examined using flow cytometry. Since MitoTEMPO is a specific scavenger for superoxide, the potential to alleviate mitochondrial oxidative damage was investigated by scavenging mtROS once produced. […] In this experiment, Rotenone, a mitochondrial complex I inhibitor, was used as a positive control.

Row | Compound | loss of MMP, MitoTEMPO pretreatment [1] | loss of MMP, no pretreatment [1] | decrease in mtROS versus the non-pretreated group [2]
1 | Carbonyl cyanide m-chlorophenyl hydrazine [CCCP] | 84% | 95% | 
2 | CC1(C)CC(NC(=O)C[P+](c2ccccc2)(c2ccccc2)c2ccccc2)CC(C)(C)N1[O] [MitoTEMPO] |  |  | 1.8 fold
